Source: BigSolDB 2.1

CN(CCOc1ccc(CC2SC(=O)NC2=O)cc1)c1ccccn1 (configuration not stated)
solubility (mole fraction)
Settings	in acetone	in acetonitrile	in ethanol	in ethyl acetate	in isopropanol	in methanol	in methyl acetate	in n-butanol	in n-butyl acetate	in n-propanol
283.15 K	0.00177	0.000267	0.000245	0.00123	0.00013	0.000139	0.00123	0.000341	0.000926	0.000276
293.15 K	0.00278	0.000453	0.000341	0.00205	0.000173	–	0.00205	0.000371	0.00117	0.00028
303.15 K	0.00455	0.000744	0.000458	0.003	0.000282	0.000444	0.00335	0.00042	0.00235	0.000323
313.15 K	0.00691	0.00126	0.00067	0.00441	0.000529	0.000745	0.0052	0.00063	0.00355	0.000741
323.15 K	0.00992	–	0.00124	0.00649	0.000992	0.00132	0.00795	0.00147	0.00505	0.00133
333.15 K	–	0.00352	0.00244	0.0118	0.00218	0.00235	0.0126	0.00293	0.0092	0.0029
